Assay results published in PMC9632963, “Preclinical characterization and phase I clinical trial of CT053PTSA targets MET, AXL, and VEGFR2 in patients with advanced solid tumors” (Frontiers in Immunology, 2022).

System: patients with advanced solid tumors
Assay: Phase I trial: safety, tolerability, DLT, MTD (CTCAE v4.0)
Format: in vivo
From the text: Eligible patients had at least one measurable lesion per RECIST v 1.1, Eastern Cooperative Oncology Group (ECOG) performance status of 0 or 1, and adequate hematological, renal, cardiac and hepatic functions. The primary objectives were to assess safety and tolerability as well as to determine the MTD, DLT, and dose recommended for further study. The secondary objectives were to assess the PK and preliminary efficacy of CT053PTSA.
An initial accelerated titration design was used in the 15 and 30 mg QD cohorts, and the “3+3” schema was used starting in the 60 mg QD cohort. […] The study protocol was approved by an institutional review board at Sun Yat-sen University Cancer Center. Written informed consent was obtained from all the patients before enrollment.
Descriptive statistics of safety are presented per CTCAE v4.0. Subjects who received at least one dose of CT053PTSA were considered eligible to be evaluated and included in safety analyses. […] According to the RECIST 1.1 criteria, imaging examinations were performed at each specified time point in the protocol. The antitumor activity was measured by RECIST1.1.

In the case of `Cc1c(C(=O)Nc2ccc(Oc3ccnc4cc(OCC(C)(C)O)ccc34)c(F)c2)c(=O)n(-c2ccccc2)n1C` [CT053PTSA], the “Nausea, All” value (30mg (n = 1)) is reported as 0 n (%), the “Nausea, ≥ G3” value (30mg (n = 1)) is reported as 0 n (%) and the “Oropharyngeal pain, All” value (30mg (n = 1)) is reported as 0 n (%). For the same compound, the “Oropharyngeal pain, ≥ G3” value (30mg (n = 1)) was 0 n (%), the “Pain, All” value (30mg (n = 1)) was 0 n (%) and the “Pain, ≥ G3” value (30mg (n = 1)) was 0 n (%). The “Palmar-plantar erythrodysaesthesia syndrome, All” value (30mg (n = 1)) was 0 n (%), the “Palmar-plantar erythrodysaesthesia syndrome, ≥ G3” value (30mg (n = 1)) was 0 n (%) and the “Platelet count decreased, All” value (30mg (n = 1)) was 0 n (%). For the same compound, the “Platelet count decreased, ≥ G3” value (30mg (n = 1)) was 0 n (%), the “Proteinuria, All” value (30mg (n = 1)) was 0 n (%) and the “Proteinuria, ≥ G3” value (30mg (n = 1)) was 0 n (%). For the same compound, the “Pyrexia, All” value (30mg (n = 1)) was 0 n (%), the “Pyrexia, ≥ G3” value (30mg (n = 1)) was 0 n (%) and the “Sinus bradycardia, All” value (30mg (n = 1)) was 0 n (%). The “Sinus bradycardia, ≥ G3” value (30mg (n = 1)) was 0 n (%), the “Stomatitis, All” value (30mg (n = 1)) was 0 n (%) and the “Stomatitis, ≥ G3” value (30mg (n = 1)) was 0 n (%). The “Vomiting, All” value (30mg (n = 1)) was 0 n (%), the “Vomiting, ≥ G3” value (30mg (n = 1)) was 0 n (%) and the “leukopenia, All” value (30mg (n = 1)) was 0 n (%). The “leukopenia, ≥ G3” value (30mg (n = 1)) was 0 n (%), the “neutropenia, All” value (30mg (n = 1)) was 0 n (%) and the “neutropenia, ≥ G3” value (30mg (n = 1)) was 0 n (%). For the same compound, the “transaminase elevation, All” value (30mg (n = 1)) was 0 n (%), the “transaminase elevation, ≥ G3” value (30mg (n = 1)) was 0 n (%) and the “Anaemia, All” value (60mg (n = 6)) was 0 n (%). For the same compound, the “Anaemia, ≥ G3” value (60mg (n = 6)) was 0 n (%), the “Blood chloride decreased, All” value (60mg (n = 6)) was 0 n (%) and the “Blood chloride decreased, ≥ G3” value (60mg (n = 6)) was 0 n (%). The “Blood creatinine increased, All” value (60mg (n = 6)) was 0 n (%), the “Blood creatinine increased, ≥ G3” value (60mg (n = 6)) was 0 n (%) and the “Blood potassium decreased, All” value (60mg (n = 6)) was 0 n (%). For the same compound, the “Blood potassium decreased, ≥ G3” value (60mg (n = 6)) was 0 n (%), the “Blood sodium decreased, All” value (60mg (n = 6)) was 0 n (%) and the “Blood sodium decreased, ≥ G3” value (60mg (n = 6)) was 0 n (%). The “Blood uric acid increased, All” value (60mg (n = 6)) was 0 n (%), the “Blood uric acid increased, ≥ G3” value (60mg (n = 6)) was 0 n (%) and the “Decreased appetite, All” value (60mg (n = 6)) was 0 n (%). For the same compound, the “Decreased appetite, ≥ G3” value (60mg (n = 6)) was 0 n (%), the “Diarrhea, All” value (60mg (n = 6)) was 0 n (%) and the “Diarrhea, ≥ G3” value (60mg (n = 6)) was 0 n (%). For the same compound, the “Dizziness, All” value (60mg (n = 6)) was 0 n (%), the “Dizziness, ≥ G3” value (60mg (n = 6)) was 0 n (%) and the “Dry mouth, All” value (60mg (n = 6)) was 0 n (%). For the same compound, the “Dry mouth, ≥ G3” value (60mg (n = 6)) was 0 n (%), the “Electrocardiogram QT prolonged, All” value (60mg (n = 6)) was 1 (16.7) n (%) and the “Electrocardiogram QT prolonged, ≥ G3” value (60mg (n = 6)) was 0 n (%). The “Electrolyte imbalance, All” value (60mg (n = 6)) was 0 n (%), the “Electrolyte imbalance, ≥ G3” value (60mg (n = 6)) was 0 n (%) and the “Hemoglobin decreased, All” value (60mg (n = 6)) was 0 n (%). The “Hemoglobin decreased, ≥ G3” value (60mg (n = 6)) was 0 n (%), the “Hypertension, All” value (60mg (n = 6)) was 0 n (%) and the “Hypertension, ≥ G3” value (60mg (n = 6)) was 0 n (%). For the same compound, the “Hyponatremia, All” value (60mg (n = 6)) was 0 n (%), the “Hyponatremia, ≥ G3” value (60mg (n = 6)) was 0 n (%) and the “Hypoparathyroidism, All” value (60mg (n = 6)) was 0 n (%). The “Hypoparathyroidism, ≥ G3” value (60mg (n = 6)) was 0 n (%), the “Mouth ulceration, All” value (60mg (n = 6)) was 0 n (%) and the “Mouth ulceration, ≥ G3” value (60mg (n = 6)) was 0 n (%). For the same compound, the “Nausea, All” value (60mg (n = 6)) was 0 n (%), the “Nausea, ≥ G3” value (60mg (n = 6)) was 0 n (%) and the “Oropharyngeal pain, All” value (60mg (n = 6)) was 0 n (%). The “Oropharyngeal pain, ≥ G3” value (60mg (n = 6)) was 0 n (%), the “Pain, All” value (60mg (n = 6)) was 0 n (%) and the “Pain, ≥ G3” value (60mg (n = 6)) was 0 n (%). For the same compound, the “Palmar-plantar erythrodysaesthesia syndrome, All” value (60mg (n = 6)) was 0 n (%), the “Palmar-plantar erythrodysaesthesia syndrome, ≥ G3” value (60mg (n = 6)) was 0 n (%) and the “Platelet count decreased, All” value (60mg (n = 6)) was 1 (16.7) n (%). The “Platelet count decreased, ≥ G3” value (60mg (n = 6)) was 0 n (%), the “Proteinuria, All” value (60mg (n = 6)) was 0 n (%) and the “Proteinuria, ≥ G3” value (60mg (n = 6)) was 0 n (%). For the same compound, the “Pyrexia, All” value (60mg (n = 6)) was 0 n (%), the “Pyrexia, ≥ G3” value (60mg (n = 6)) was 0 n (%) and the “Sinus bradycardia, All” value (60mg (n = 6)) was 0 n (%). The “Sinus bradycardia, ≥ G3” value (60mg (n = 6)) was 0 n (%), the “Stomatitis, All” value (60mg (n = 6)) was 0 n (%) and the “Stomatitis, ≥ G3” value (60mg (n = 6)) was 0 n (%). For the same compound, the “Vomiting, All” value (60mg (n = 6)) was 0 n (%), the “Vomiting, ≥ G3” value (60mg (n = 6)) was 0 n (%) and the “leukopenia, All” value (60mg (n = 6)) was 1 (16.7) n (%). The “leukopenia, ≥ G3” value (60mg (n = 6)) was 0 n (%), the “neutropenia, All” value (60mg (n = 6)) was 1 (16.7) n (%) and the “neutropenia, ≥ G3” value (60mg (n = 6)) was 0 n (%). For the same compound, the “transaminase elevation, All” value (60mg (n = 6)) was 3 (50) n (%), the “transaminase elevation, ≥ G3” value (60mg (n = 6)) was 0 n (%) and the “Anaemia, All” value (100mg (n = 7)) was 1 (14.3) n (%). The “Anaemia, ≥ G3” value (100mg (n = 7)) was 0 n (%), the “Blood chloride decreased, All” value (100mg (n = 7)) was 1 (14.3) n (%) and the “Blood chloride decreased, ≥ G3” value (100mg (n = 7)) was 0 n (%). For the same compound, the “Blood creatinine increased, All” value (100mg (n = 7)) was 0 n (%), the “Blood creatinine increased, ≥ G3” value (100mg (n = 7)) was 0 n (%) and the “Blood potassium decreased, All” value (100mg (n = 7)) was 0 n (%). The “Blood potassium decreased, ≥ G3” value (100mg (n = 7)) was 0 n (%) and the “Blood sodium decreased, All” value (100mg (n = 7)) was 0 n (%).
